Tests used:
hcGAS [1] = target: T1, hcGAS (Homo sapiens, UniProt Q8N884); assay: hcGAS Kinase-Glo assay (ATP depletion); assay type: biochemical; settings: 40 nM hcGAS, 100 μM ATP, 100 μM GTP, 25 nM dsDNA, 3 h incubation
Summary of the method: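 Human cGAS activity measured indirectly as ATP depletion by Kinase-Glo luminescence, following the Lama et al. method with modified conditions. Output is IC50, binned into potency categories.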

hcGAS [2] = target: T1, hcGAS; assay: hcGAS LCMS assay (direct measurement of cGAMP production); assay type: biochemical; settings: 0.5 nM hcGAS, 100 μM ATP, 100 μM GTP, 25 nM dsDNA, 4 h incubation
Summary of the method: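 Direct LC/MS readout of cGAMP formed: 4-h enzyme–substrate incubation with compound, stopped by acetonitrile/water quench carrying isotope-labelled cGAMP (0.15 mM) as standard. Potency reported as IC50 ranges.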

T1 sequence (Q8N884 whole entry): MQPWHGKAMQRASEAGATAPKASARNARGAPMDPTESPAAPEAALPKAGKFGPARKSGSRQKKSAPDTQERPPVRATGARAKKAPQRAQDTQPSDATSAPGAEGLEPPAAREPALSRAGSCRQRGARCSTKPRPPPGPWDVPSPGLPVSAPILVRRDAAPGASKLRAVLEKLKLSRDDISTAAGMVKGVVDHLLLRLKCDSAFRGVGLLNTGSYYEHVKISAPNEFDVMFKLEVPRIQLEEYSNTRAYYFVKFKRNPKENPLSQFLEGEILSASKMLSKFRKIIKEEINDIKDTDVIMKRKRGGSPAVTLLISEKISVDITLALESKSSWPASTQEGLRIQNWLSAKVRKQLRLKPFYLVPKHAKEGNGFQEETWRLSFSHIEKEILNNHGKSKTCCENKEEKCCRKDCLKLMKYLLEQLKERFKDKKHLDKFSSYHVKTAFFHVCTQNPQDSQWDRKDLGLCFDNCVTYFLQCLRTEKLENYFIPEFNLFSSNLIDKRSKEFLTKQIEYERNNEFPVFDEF

Question: Which IC50 (hcGAS [1]) does the source give for `COc1c(N2CC[C@@H](OC)C2)cc(C(=O)Nc2nnc(-n3nccc3C)s2)oc1=O` [Compound 31, (R)-5-methoxy-4-(3-methoxypyrrolidin-1-yl)-N-(5-(5-methyl-1H-pyrazol-1-yl)-1,3,4-thiadiazol-2-yl)-6-oxo-6H-pyran-2-carboxamide] here?
Answer: Its IC50 is 10 to 30 nM.

Question: What about the IC50 (hcGAS [2]) of the same compound?
Answer: The IC50 was 5 to 20 nM.

Question: For `COc1c(NCCS(C)(=O)=O)cc(C(=O)Nc2nnc(-n3nccc3C)s2)oc1=O` [Compound 183], which IC50 (hcGAS [1]) is on record?
Answer: The IC50 was 30 to 100 nM.

Question: And the IC50 (hcGAS [2])?
Answer: The IC50 was 5 to 20 nM.

Question: With `COc1c(NC[C@H](C)OC)cc(C(=O)Nc2nnc(-n3nccc3C)s2)oc1=O` [Compound 187, (S)-3-methoxy-4-((2-methoxypropyl)amino)-N-(5-(5-methyl-1H-pyrazol-1-yl)-1,3,4-thiadiazol-2-yl)-2-oxo-2H-pyran-6-carboxamide] as the compound, how does the IC50 (hcGAS [1]) read?
Answer: The IC50 was 10 to 30 nM.

Question: What about the IC50 (hcGAS [2]) of the same compound?
Answer: The IC50 was 5 to 20 nM.

Question: With `COc1c(N[C@H]2CCC[C@H]2OC)cc(C(=O)Nc2nnc(-n3nccc3C)s2)oc1=O` (racemic) [Rac-14, 3-methoxy-4-(((1S,2R)-2-methoxycyclopentyl)amino)-N-(5-(5-methyl-1H-pyrazol-1-yl)-1,3,4-thiadiazol-2-yl)-2-oxo-2H-pyran-6-carboxamide] as the compound, how does the IC50 (hcGAS [1]) read?
Answer: The IC50 was 10 to 30 nM.

Question: And the IC50 (hcGAS [2])?
Answer: The IC50 was 5 to 20 nM.

Question: What does the source list for `COc1c(NCCO)cc(C(=O)Nc2nnc(-c3c(Cl)ccn3C)s2)oc1=O` [Compound 129, N-(5-(3-chloro-1-methyl-1H-pyrrol-2-yl)-1,3,4-thiadiazol-2-yl)-4-((2-hydroxyethyl)amino)-3-methoxy-2-oxo-2H-pyran-6-carboxamide]?
Answer: IC50 (hcGAS [1]): < 10 nM; IC50 (hcGAS [2]): 5 to 20 nM

Question: For `COc1c(NC23CC(C2)C3)cc(C(=O)Nc2nnc(-n3nccc3C)s2)oc1=O` [Compound 182, 4-(bicyclo[1.1.1]pentan-1-ylamino)-3-methoxy-N-(5-(5-methyl-1H-pyrazol-1-yl)-1,3,4-thiadiazol-2-yl)-2-oxo-2H-pyran-6-carboxamide], which IC50 (hcGAS [1]) is on record?
Answer: The IC50 was 10 to 30 nM.

Question: And the IC50 (hcGAS [2])?
Answer: Its IC50 is 5 to 20 nM.

Question: What does the source list for “3-methoxy-4-(((1R,2S)-2-methoxycyclobutyl)amino)-N-(5-(5-methyl-1H-pyrazol-1-yl)-1,3,4-thiadiazol-2-yl)-2-oxo-2H-pyran-6-carboxamide [Rac-67]”?
Answer: IC50 (hcGAS [1]): 10 to 30 nM; IC50 (hcGAS [2]): 5 to 20 nM

Question: Which results are given for `COc1c(N2CC[C@H](O)C2)cc(C(=O)Nc2nnc(-n3nccc3C)s2)oc1=O` [Compound 110, (S)-4-(3-hydroxypyrrolidin-1-yl)-3-methoxy-N-(5-(5-methyl-1H-pyrazol-1-yl)-1,3,4-thiadiazol-2-yl)-2-oxo-2H-pyran-6-carboxamide]?
Answer: IC50 (hcGAS [1]): 10 to 30 nM; IC50 (hcGAS [2]): 5 to 20 nM

Question: For `COc1c(N[C@H]2CCCC[C@H]2O)cc(C(=O)Nc2nnc(-n3nccc3C)s2)oc1=O` (racemic) [Rac-189, 4-(((1S,2R)-2-hydroxycyclohexyl)amino)-3-methoxy-N-(5-(5-methyl-1H-pyrazol-1-yl)-1,3,4-thiadiazol-2-yl)-2-oxo-2H-pyran-6-carboxamide], which IC50 (hcGAS [1]) is on record?
Answer: The IC50 was 10 to 30 nM.

Question: And the IC50 (hcGAS [2])?
Answer: Its IC50 is 5 to 20 nM.

Question: With `COc1c(N[C@@H]2CCC[C@@H]2O)cc(C(=O)Nc2nnc(-n3nccc3C)s2)oc1=O` (racemic) [Rac-23, 4-(((cis)-2-hydroxycyclopentyl)amino)-3-methoxy-N-(5-(5-methyl-1H-pyrazol-1-yl)-1,3,4-thiadiazol-2-yl)-2-oxo-2H-pyran-6-carboxamide] as the compound, how does the IC50 (hcGAS [1]) read?
Answer: Its IC50 is 10 to 30 nM.

Question: What about the IC50 (hcGAS [2]) of the same compound?
Answer: Its IC50 is < 5 nM.

Question: What does the source list for `COc1c(N[C@H]2CCC[C@H]2O)cc(C(=O)Nc2nnc(-c3c(Cl)ccn3C)s2)oc1=O` (racemic) [Rac-188, N-(5-(3-chloro-1-methyl-1H-pyrrol-2-yl)-1,3,4-thiadiazol-2-yl)-4-(((1S,2R)-2-hydroxycyclopentyl)amino)-3-methoxy-2-oxo-2H-pyran-6-carboxamide]?
Answer: IC50 (hcGAS [1]): < 10 nM; IC50 (hcGAS [2]): < 5 nM

Question: Which IC50 (hcGAS [1]) does the source give for `COC[C@@H](C)Nc1cc(C(=O)Nc2nnc(-n3nccc3C)s2)oc(=O)c1OC` [Compound 121, (R)-3-methoxy-4-((1-methoxypropan-2-yl)amino)-N-(5-(5-methyl-1H-pyrazol-1-yl)-1,3,4-thiadiazol-2-yl)-2-oxo-2H-pyran-6-carboxamide] here?
Answer: The IC50 was 10 to 30 nM.

Question: What about the IC50 (hcGAS [2]) of the same compound?
Answer: Its IC50 is 5 to 20 nM.

Question: Which results are given for `COCCNc1cc(C(=O)Nc2nnc(-c3cscc3Cl)s2)oc(=O)c1OC` [Compound 136, N-(5-(4-chlorothiophen-3-yl)-1,3,4-thiadiazol-2-yl)-3-methoxy-4-((2-methoxyethyl)amino)-2-oxo-2H-pyran-6-carboxamide]?
Answer: IC50 (hcGAS [1]): 10 to 30 nM; IC50 (hcGAS [2]): 5 to 20 nM

Question: What does the source list for `COc1c(NC(C)C)cc(C(=O)Nc2nnc(-c3c(Cl)ccn3C)s2)oc1=O` [Compound 131, N-(5-(3-chloro-1-methyl-1H-pyrrol-2-yl)-1,3,4-thiadiazol-2-yl)-4-(isopropylamino)-3-methoxy-2-oxo-2H-pyran-6-carboxamide]?
Answer: IC50 (hcGAS [1]): 10 to 30 nM; IC50 (hcGAS [2]): 5 to 20 nM

Question: With `COc1c(NCC(C)(C)O)cc(C(=O)Nc2nnc(-n3nccc3C)s2)oc1=O` [Compound 33, 4-(2-hydroxy-2-methylpropylamino)-5-methoxy-N-(5-(5-methyl-1H-pyrazol-1-yl)-1,3,4-thiadiazol-2-yl)-6-oxo-6H-pyran-2-carboxamide] as the compound, how does the IC50 (hcGAS [1]) read?
Answer: The IC50 was 10 to 30 nM.

Question: And the IC50 (hcGAS [2])?
Answer: Its IC50 is 20 to 60 nM.

Question: How did the IC50 (hcGAS [1]) turn out when `COc1c(N[C@@H]2CC[C@@H]2O)cc(C(=O)Nc2nnc(-n3nccc3C)s2)oc1=O` (racemic) [Rac-43, 4-(((1R,2S)-2-hydroxycyclobutyl)amino)-3-methoxy-N-(5-(5-methyl-1H-pyrazol-1-yl)-1,3,4-thiadiazol-2-yl)-2-oxo-2H-pyran-6-carboxamide] was run?
Answer: Its IC50 is 10 to 30 nM.

Question: And the IC50 (hcGAS [2])?
Answer: Its IC50 is 5 to 20 nM.

Question: How did the IC50 (hcGAS [1]) turn out when `COc1c(N2CC[C@@H](O)C2)cc(C(=O)Nc2nnc(-n3nccc3C)s2)oc1=O` [Compound 30, (R)-4-(3-hydroxypyrrolidin-1-yl)-3-methoxy-N-(5-(5-methyl-1H-pyrazol-1-yl)-1,3,4-thiadiazol-2-yl)-2-oxo-2H-pyran-6-carboxamide] was run?
Answer: Its IC50 is 10 to 30 nM.

Question: And the IC50 (hcGAS [2])?
Answer: Its IC50 is 5 to 20 nM.

Question: With `COc1c(N[C@H]2CCC[C@@H]2OC)cc(C(=O)Nc2nnc(-n3nccc3C)s2)oc1=O` (racemic) [Rac-107, 3-methoxy-4-(((1S,2S)-2-methoxycyclopentyl)amino)-N-(5-(5-methyl-1H-pyrazol-1-yl)-1,3,4-thiadiazol-2-yl)-2-oxo-2H-pyran-6-carboxamide] as the compound, how does the IC50 (hcGAS [1]) read?
Answer: The IC50 was < 10 nM.

Question: And the IC50 (hcGAS [2])?
Answer: The IC50 was 5 to 20 nM.

Question: How did the IC50 (hcGAS [1]) turn out when `COc1c(NC23CC(CC#N)(C2)C3)cc(C(=O)Nc2nnc(-n3nccc3C)s2)oc1=O` [Compound 116, 4-((3-(cyanomethyl)bicyclo[1.1.1]pentan-1-yl)amino)-3-methoxy-N-(5-(5-methyl-1H-pyrazol-1-yl)-1,3,4-thiadiazol-2-yl)-2-oxo-2H-pyran-6-carboxamide] was run?
Answer: Its IC50 is 10 to 30 nM.

Question: What about the IC50 (hcGAS [2]) of the same compound?
Answer: Its IC50 is 5 to 20 nM.

Question: What does the source list for `COc1c(N[C@H]2CC[C@@H](O)C2)cc(C(=O)Nc2nnc(-n3nccc3C)s2)oc1=O` (racemic) [Rac-61, 4-(((1S,3R)-3-hydroxycyclopentyl)amino)-3-methoxy-N-(5-(5-methyl-1H-pyrazol-1-yl)-1,3,4-thiadiazol-2-yl)-2-oxo-2H-pyran-6-carboxamide]?
Answer: IC50 (hcGAS [1]): 10 to 30 nM; IC50 (hcGAS [2]): 5 to 20 nM

Question: Which results are given for `COc1c(N[C@H]2CC[C@@H](OC)C2)cc(C(=O)Nc2nnc(-n3nccc3C)s2)oc1=O` (racemic) [Rac-108, 3-methoxy-4-(((cis)-3-methoxycyclopentyl)amino)-N-(5-(5-methyl-1H-pyrazol-1-yl)-1,3,4-thiadiazol-2-yl)-2-oxo-2H-pyran-6-carboxamide]?
Answer: IC50 (hcGAS [1]): 10 to 30 nM; IC50 (hcGAS [2]): 5 to 20 nM

Question: Which IC50 (hcGAS [1]) does the source give for `COc1c(N2CC[C@@H](S(C)(=O)=O)C2)cc(C(=O)Nc2nnc(-n3nccc3C)s2)oc1=O` [Compound 8, (R)-3-methoxy-N-(5-(5-methyl-1H-pyrazol-1-yl)-1,3,4-thiadiazol-2-yl)-4-(3-(methylsulfonyl)pyrrolidin-1-yl)-2-oxo-2H-pyran-6-carboxamide] here?
Answer: The IC50 was 10 to 30 nM.

Question: What about the IC50 (hcGAS [2]) of the same compound?
Answer: The IC50 was 5 to 20 nM.
